The target in assay [1] is T1, FAK protein (Homo sapiens, UniProt Q05397). In words: Degradation inducing activity of FAK protein in PA-1 cells, Western blotting (Simple Western JESS). In kind it is cell-based. The arrangement: endogenous in cells; host or cells: PA-1 (ATCC CRL-1572). The settings on record: at 10 µM, 24 hours. Here is the method:
In vitro degradation inducing activity of FAK protein of compounds of Examples was evaluated by Western Blotting (WB).
By a test compound, 10 mM DMSO solution was prepared, which was used as a 10 µM test compound solution. Further, the solution was diluted 10-fold with DMSO to prepare a 1 mM solution, which was used as a 1 µM test compound solution.
PA-1 cells (ATCC: CRL-1572, Lot: 70055709) were cultured in Eagle's Minimum Essential Medium supplemented with 10% FBS and 1% Penicillin/Streptomycin. The PA-1 cells seeded in a 24 well plate at 200,000 cells/well/1 mL were cultured for 24 hours, and then 1 µL of DMSO or a test compound solution was added thereto and treatment was performed for 24 hours. Cells were harvested and lysed for 20 minutes on ice using RIPA lysis buffer (Sigma, Cat#R0278) supplemented with protease inhibitor cocktail (Sigma, Cat#P8340; Roche, Cat#P11873580001), and phosphatase inhibitor cocktail (Sigma, Cat#P5726, P0044). The lysate was sonicated (15 seconds, amplitude 30%, 1 cycle) and then centrifuged at 12500 rpm for 15 minutes at 4°C. The protein concentration was determined by BCA assay kit (Thermo Fisher Scientific, Cat#23225).
The western blotting was performed using Simple Western JESS (protein simple). A cell lysis sample (protein amount; about 2 µg) was loaded on a plate of Simple Western JESS, and the expression level of […] was detected using a 12-230 kDa Wes Separation Module (Protein simple, Cat#SM-WO04), an Anti-Rabbit Detection Module for Wes (Protein simple, Cat#DM-001), and a Total Protein Detection Module for Wes (Protein simple, Cat#DM-TP01). As the primary antibody, a material obtained by diluting FAK Rabbit mAb (Cell Signaling Technology, Cat#3285) at 1:100 was used, and as the secondary antibody, a material obtained by diluting HRP-labeled anti-rabbit IgG antibody (Cell Signaling Technology, Cat#7074S) at 1:250 was used. The expression level of the target protein was standardized using the total protein amount loaded as a reference. The standardized expression level data of the control (DMSO) was taken as 100%, and the degradation rate (%) was calculated from the average standardized expression level data of the test compounds (compounds of Examples 109 to 128). All analysis steps, such as data detection and analysis, are fully automated.
Target sequence in this assay (Q05397 whole entry): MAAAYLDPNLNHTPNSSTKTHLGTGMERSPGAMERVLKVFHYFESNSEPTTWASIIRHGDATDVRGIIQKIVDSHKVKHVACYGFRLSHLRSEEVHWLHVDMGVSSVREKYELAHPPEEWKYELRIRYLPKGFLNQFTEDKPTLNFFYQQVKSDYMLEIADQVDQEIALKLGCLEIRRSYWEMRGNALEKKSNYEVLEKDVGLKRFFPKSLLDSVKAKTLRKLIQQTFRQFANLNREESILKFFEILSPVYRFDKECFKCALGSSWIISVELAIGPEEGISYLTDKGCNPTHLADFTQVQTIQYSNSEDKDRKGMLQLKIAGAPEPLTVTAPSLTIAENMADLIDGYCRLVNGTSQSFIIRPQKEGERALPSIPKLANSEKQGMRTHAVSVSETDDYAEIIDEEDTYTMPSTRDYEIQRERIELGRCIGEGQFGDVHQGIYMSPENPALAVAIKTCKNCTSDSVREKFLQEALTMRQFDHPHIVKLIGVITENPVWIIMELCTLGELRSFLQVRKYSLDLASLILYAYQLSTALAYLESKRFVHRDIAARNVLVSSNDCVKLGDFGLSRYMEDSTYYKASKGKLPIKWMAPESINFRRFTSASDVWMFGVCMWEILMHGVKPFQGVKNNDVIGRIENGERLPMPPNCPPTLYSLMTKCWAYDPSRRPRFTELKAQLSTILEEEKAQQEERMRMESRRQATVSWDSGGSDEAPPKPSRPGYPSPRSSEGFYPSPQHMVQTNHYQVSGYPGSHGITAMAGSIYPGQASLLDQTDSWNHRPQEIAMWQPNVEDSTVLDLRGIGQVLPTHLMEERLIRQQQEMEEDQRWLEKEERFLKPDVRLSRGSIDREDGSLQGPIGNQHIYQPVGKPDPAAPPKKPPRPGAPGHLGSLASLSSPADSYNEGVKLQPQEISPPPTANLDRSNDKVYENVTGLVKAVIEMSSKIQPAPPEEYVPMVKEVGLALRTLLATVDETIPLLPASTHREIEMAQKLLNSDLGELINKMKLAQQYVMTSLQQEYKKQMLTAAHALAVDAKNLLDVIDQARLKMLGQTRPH
(Immunoblotting shows a protein as a band on a membrane.)

Assay [2] has as its target T1, FAK protein. As to the kind of experiment: FAK kinase inhibitory activity, mobility shift assay (MSA, Carna Biosciences). In kind it is biochemical. Also noted: GST (N); purchased Carna Biosciences, Inc; host or cells: baculovirus expression system. The settings on record: inhibition rate at 30 nM; reaction time 5 hours. How it is done: The FAK kinase inhibitory activity was measured using a mobility shift assay (MSA) provided by Carna Biosciences, Inc.
The test compound was dissolved in DMSO to prepare a 3 µM solution. The solution was further diluted 25 times with an assay buffer (20 mmol/L HEPES, 0.01%Triton (registered trademark) X-100, 1 mmol/L DTT, pH 7.5) to obtain a test compound solution.
Incomplete human FAK kinase was expressed by fusing 376 to 1052 amino acids of Accession No. NP_722560.1 with GST at the N-terminus using the baculovirus expression system. The GST-FAK was purified by glutathione sepharose chromatography. A 4-fold concentration substrate (Blk/Lyntide, 1000 nmol/L)/ATP (25 µmol/L)/metal solution (Mg, 5 mmol/L) was prepared with kit buffer (20 mmol/L HEPES, 0.01% Triton (registered trademark) X-100, 5 mmol/L DTT, pH 7.5). A 2-fold concentration kinase solution was prepared with assay buffer.
In the same manner as described in Test Example 1, tests and evaluation of inhibitory activity and data analysis were performed. The reaction time was set to 5 hours. […]
Target sequence in this assay (Q05397 376-1052): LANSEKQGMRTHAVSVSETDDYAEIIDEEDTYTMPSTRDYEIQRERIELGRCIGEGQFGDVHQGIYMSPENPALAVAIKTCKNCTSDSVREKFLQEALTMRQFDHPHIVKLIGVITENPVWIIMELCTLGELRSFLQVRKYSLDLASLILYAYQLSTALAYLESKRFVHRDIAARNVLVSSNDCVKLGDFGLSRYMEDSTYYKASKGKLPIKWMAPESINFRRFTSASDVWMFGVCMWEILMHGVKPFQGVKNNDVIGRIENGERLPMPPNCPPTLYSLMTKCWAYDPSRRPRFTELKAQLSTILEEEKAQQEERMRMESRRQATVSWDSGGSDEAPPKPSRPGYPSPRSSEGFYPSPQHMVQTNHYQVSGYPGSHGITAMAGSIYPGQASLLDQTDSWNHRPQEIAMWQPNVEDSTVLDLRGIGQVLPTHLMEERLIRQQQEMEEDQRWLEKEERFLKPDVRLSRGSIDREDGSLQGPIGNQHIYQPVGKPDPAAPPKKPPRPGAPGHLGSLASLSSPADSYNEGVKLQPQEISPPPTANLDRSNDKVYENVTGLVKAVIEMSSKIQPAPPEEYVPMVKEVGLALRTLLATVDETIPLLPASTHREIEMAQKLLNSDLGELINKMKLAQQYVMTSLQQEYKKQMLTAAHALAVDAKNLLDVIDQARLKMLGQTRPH

Another assay concerns the target T2, human ALK kinase (Homo sapiens, UniProt Q9UM73).
T2 construct: GST (N); purchased Carna Biosciences, Inc; host or cells: baculovirus expression system
As to the kind of experiment: ALK kinase inhibitory activity, mobility shift assay (MSA, Carna Biosciences). Format: biochemical. The settings on record: inhibition rate at 10 nM. Here is the method: The ALK kinase inhibitory activity was measured using a mobility shift assay (MSA) provided by Carna Biosciences, Inc.
The test compound was dissolved in DMSO to prepare a 1 µM solution. The solution was further diluted 25 times with an assay buffer (20 mmol/L HEPES, 0.01%Triton (registered trademark) X-100, 1 mmol/L DTT, pH 7.5) to obtain a test compound solution.
The human ALK kinase was expressed by fusing the cytoplasmic domain (1058 to 1620 amino acids of Accession No. BAG 10812.1) with GST at the N-terminus using the baculovirus expression system. The GST-ALK was purified by glutathione sepharose chromatography. A 4-fold concentration substrate (Srctide, 1000 nmol/L)/ATP (50 µmol/L)/metal solution (Mg, 5 mmol/L) was prepared with kit buffer (20 mmol/L HEPES, 0.01% Triton (registered trademark) X-100, 5 mmol/L DTT, pH 7.5). A 2-fold concentration kinase solution was prepared with assay buffer.
In the same manner as described in Test Example 1, tests and evaluation of inhibitory activity and data analysis were performed.

Data on seven molecules can be found in patent EP4578856A1, “HETEROCYCLIC COMPOUND” (Ubience Inc., priority 2022, dated 2024).

In general, inhibition refers to the relative decrease from the control value, in per cent.

T2 sequence (Q9UM73 1058-1620): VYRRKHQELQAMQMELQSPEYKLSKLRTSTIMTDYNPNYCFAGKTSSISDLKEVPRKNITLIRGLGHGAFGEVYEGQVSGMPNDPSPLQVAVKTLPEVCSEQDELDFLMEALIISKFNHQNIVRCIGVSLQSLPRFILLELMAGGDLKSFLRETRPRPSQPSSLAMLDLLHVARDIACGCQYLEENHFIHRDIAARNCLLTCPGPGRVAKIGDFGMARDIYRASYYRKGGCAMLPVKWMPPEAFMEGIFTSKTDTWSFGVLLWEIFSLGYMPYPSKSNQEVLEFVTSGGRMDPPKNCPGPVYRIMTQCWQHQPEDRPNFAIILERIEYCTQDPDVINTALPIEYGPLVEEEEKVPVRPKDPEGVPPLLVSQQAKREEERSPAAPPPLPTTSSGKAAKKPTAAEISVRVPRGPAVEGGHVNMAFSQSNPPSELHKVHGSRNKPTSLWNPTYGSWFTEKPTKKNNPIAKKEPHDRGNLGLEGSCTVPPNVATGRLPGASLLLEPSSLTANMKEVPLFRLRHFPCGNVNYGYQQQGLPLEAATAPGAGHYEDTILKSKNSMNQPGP

Consider `COC[C@H]1CN[C@H](C)CN1CC(=O)N1CC(C)(C)c2nc(CN3CCN(CCOCC(=O)Nc4ccc(Nc5ncc(C(F)(F)F)c(NCc6cccc(S(C)(=O)=O)c6)n5)cc4)CC3)c(Cc3ccc(F)cc3)cc21` [Example 115, 2-(2-(4-((6-(4-Fluorobenzyl)-1-(2-((2R,5R)-2-(methoxymethyl)-5-methylpiperazin-1-yl)acetyl)-3,3-dimethyl-2,3-dihydro-1H-pyrrolo[3,2-b]pyridin-5-yl)methyl)piperazin-1-yl)ethoxy)-N-(4-((4-((3-(methylsulfonyl)benzyl)amino)-5-(trifluoromethyl)pyrimidin-2-yl)amino)phenyl)acetamide], for which the “FAK protein degradation rate” value on FAK protein [1] was ≥ 75%. The inhibition at 0.03 µM at FAK protein [2] was ≥ 75%.

Take `COC[C@H]1CN[C@H](C)CN1CC(=O)N1CC(C)(C)c2nc(CN3CCN(CCOCCOCC(=O)Nc4ccc(Nc5ncc(C(F)(F)F)c(NCc6cccc(S(C)(=O)=O)c6)n5)cc4)CC3)c(Cc3ccc(F)cc3)cc21` [Example 116, 2-(2-(2-(4-((6-(4-Fluorobenzyl)-1-(2-((2R,5R)-2-(methoxymethyl)-5-methylpiperazin-1-yl)acetyl)-3,3-dimethyl-2,3-dihydro-1H-pyrrolo[3,2-b]pyridin-5-yl)methyl)piperazin-1-yl)ethoxy)ethoxy)-N-(4-((4-((3-(methylsulfonyl)benzyl)amino)-5-(trifluoromethyl)pyrimidin-2-yl)amino)phenyl)acetamide]: the inhibition at 0.03 µM on FAK protein [2] lay within 50 to 75%.

As for `C[C@@H]1CN(CC(=O)N2CC(C)(C)c3ncc(Cc4ccc(F)cc4)cc32)[C@@H](CN(C)CCOCCOCCOCC(=O)Nc2ccc(Nc3ncc(C(F)(F)F)c(NCc4cccc(S(C)(=O)=O)c4)n3)cc2)CN1` [Example 111, 1-((2R,5R)-1-(2-(6-(4-Fluorobenzyl)-3,3-dimethyl-2,3-dihydro-1H-pyrrolo[3,2-b]pyridin-1-yl)-2-oxoethyl)-5-methylpiperazin-2-yl)-2-methyl-N-(4-((4-((3-(methylsulfonyl)benzyl)amino)-5-(trifluoromethyl)pyrimidin-2-yl)amino)phenyl)-5,8,11-trioxa-2-azatridecan-13-amide], at FAK protein [1], the “FAK protein degradation rate” value is reported as ≥ 75%. The inhibition at 0.03 µM on FAK protein [2] was ≥ 75%.

On to `C[C@@H]1CN(CC(=O)N2CC(C)(C)c3ncc(Cc4ccc(F)cc4)cc32)[C@@H](CN(C)CCOCC(=O)Nc2ccc(Nc3ncc(C(F)(F)F)c(NCc4cccc(S(C)(=O)=O)c4)n3)cc2)CN1` [Example 109, 2-(2-((((2R,5R)-1-(2-(6-(4-Fluorobenzyl)-3,3-dimethyl-2,3-dihydro-1H-pyrrolo[3,2-b]pyridin-1-yl)-2-oxoethyl)-5-methylpiperazin-2-yl)methyl)(methyl)amino)ethoxy)-N-(4-((4-((3-(methylsulfonyl)benzyl)amino)-5-(trifluoromethyl)pyrimidin-2-yl)amino)phenyl) acetamide], for which the inhibition at 0.03 µM at FAK protein [2] was ≥ 75%.

Consider `COC[C@H]1CN[C@H](C)CN1CC(=O)N1CC(C)(C)c2ncc(Cc3ccccc3OCCN3CCN(CCOCCOCCOCC(=O)Nc4ccc(Nc5ncc(C(F)(F)F)c(NCc6cccc(S(C)(=O)=O)c6)n5)cc4)CC3)cc21` [Example 122, 2-(2-(2-(2-(4-(2-(2-((1-(2-((2R,5R)-2-(Methoxymethyl)-5-methylpiperazin-1-yl)acetyl)-3,3-dimethyl-2,3-dihydro-1H-pyrrolo[3,2-b]pyridin-6-yl)methyl)phenoxy)ethyl)piperazin-1-yl)ethoxy)ethoxy)ethoxy)-N-(4-((4-((3-(methylsulfonyl)benzyl)amino)-5-(trifluoromethyl)pyrimidin-2-yl)amino)phenyl)acetamide], for which the inhibition at 0.03 µM at FAK protein [2] lay within 50 to 75%.

With `Cc1cc(Nc2ncc(Cl)c(Nc3ccccc3S(=O)(=O)C(C)C)n2)c(OC(C)C)cc1C1CCN(CC(=O)NCCOCCN(C)C[C@H]2CN[C@H](C)CN2CC(=O)N2CC(C)(C)c3ncc(Cc4ccc(F)cc4)cc32)CC1` [Example 85, 2-(4-(4-((5-Chloro-4-((2-(isopropylsulfonyl)phenyl)amino)pyrimidin-2-yl)amino)-5-isopropoxy-2-methylphenyl)piperidin-1-yl)-N-(2-(2-((((2R,5R)-1-(2-(6-(4-fluorobenzyl)-3,3-dimethyl-2,3-dihydro-1H-pyrrolo[3,2-b]pyridin-1-yl)-2-oxoethyl)-5-methylpiperazin-2-yl)methyl) (methyl)amino)ethoxy)ethyl)acetamide], the inhibition at 0.01 µM at human ALK kinase was in the range of 50 to 75%.

`COC[C@H]1CN[C@H](C)CN1CC(=O)N1CC(C)(C)c2ncc(Cc3cccc(OCCN4CCN(CCOCCOCCOCCOCC(=O)Nc5ccc(Nc6ncc(C(F)(F)F)c(NCc7cccc(S(C)(=O)=O)c7)n6)cc5)CC4)c3)cc21` [Example 128, 14-(4-(2-(3-((1-(2-((2R,5R)-2-(Methoxymethyl)-5-methylpiperazin-1-yl)acetyl)-3,3-dimethyl-2,3-dihydro-1H-pyrrolo[3,2-b]pyridin-6-yl)methyl)phenoxy)ethyl)piperazin-1-yl)-N-(4-((4-((3-(methylsulfonyl)benzyl)amino)-5-(trifluoromethyl)pyrimidin-2-yl)amino)phenyl)-3,6,9,12-tetraoxatetradecanamide]: on FAK protein [2], the inhibition at 0.03 µM fell in the range of 50 to 75%.
